{"source": "patent US7691563B2", "about": "“Method for alleviating pain using sphingosine-1-phosphate and related compounds, and assays for identifying such compounds” (Sanofi-Aventis Pharma GmbH, priority 2003, dated 2010)", "test_system": "adenylyl cyclase (AC)", "assay": "AC activity of HeLa cell lysates after treatment of cells", "format": "cell-based, human", "conditions": "HeLa cells", "procedure": "Panel B: Adenylyl cyclase activity of HeLa cell lysates was measured in the absence and presence of serum as described in Materials and Methods section. The Gsα* (80 nM; grey bars)- and forskolin (100 μM; black bars)-stimulated specific activities of ACV were 124±10 pmol/mg/min and 464±89 pmol/min/mg, respectively. The basal activity was 11.75±2 pmol/mg/min. The mean ±SE of at least 2 experiments each done in triplicates is shown. Student T test: *p<0.001.\nPanel E: Serum-starved HeLa cells were treated with sense, antisense, and 3M-as ODNs as described above. After 24 hours the cells were incubated for 30 minutes with 10% FBS. Cells were harvested and AC activity in presence of Gαs* (80 nM; grey bars) and forskolin (100 μM; black bars) was determined as described above. Data from at least 3 experiments measured in triplicates are presented as the mean±SEM. Student T test: *p<0.01, **p<0.05.\nPanel B: Serum-starved HeLa cells were treated for varying times with 0.5 μM S1P. Cells were harvested and AC activity in presence of 80 nM Gαs* was determined as described in Material and Methods. Data from at least 4 experiments measured in triplicates are presented as the mean ±SE.\nPanel C: Serum-starved HeLa cells were treated with sense, antisense, and 3M-as ODNs as described in the Materials and Methods section. After 24 hours the cells were incubated for the indicated times with 0.5 μM S1P. Cells were harvested and AC activity in presence of Gαs* (80 nM) was determined as described above. Data are presented as the mean ±SEM of three determinations.\nPanel A: Serum-starved HeLa cells were treated with 0.5 μM S1P for 3 (grey bars) or 60 (black bars) minutes. Prior incubation with S1P the cells were incubated for 24 hours with […] pertussis toxin (PTX). AC activity in was determined presence of 80 nM Gαs*. Data from at least 2 experiments measured in triplicates are presented as the mean ±SE.\nPanel B: Serum-starved HeLa cells were treated with 0.5 μM S1P. Prior incubation with S1P the cells were incubated for 20 minutes with 10 μM U73122, R031-8220, BAPTA-AM or U0126. AC activity in was determined presence of 80 nM Gαs*. Data from at least 2 experiments measured in triplicates are presented as the mean ±SE.\nSpinal cords were lysed in 25 mM Hepes, pH 7.4, 1 mM EGTA and cell membranes were prepared as described by Kassis and Fishman. Aliquots were stored at −80° C. until use. AC activity assays were performed in a volume of 100 μl for 15 min at room temperature in the presence of 100 μM MgCl2 as previously described (Patel et al., 2002). Gsα* (80 nM) or forskolin (100 μM) were used to stimulate AC enzyme activity in membranes (10 μg protein).\nThe sequences of the oligodeoxynucleotides (ODNs) were chosen as published previously (Scholich et al., 2001). Sense: 5′-CTGTTCATGCCGGTT-3′, antisense: 5′-AACCGGCATGAACAG-3′, and antisense ODN harboring three mutations (3M-as; mutations are underlined): 5′-AATCCGTATGAACAC-3′. HeLa-cells were plated on 35 mm dishes (300,000 cells) and grown in DMEM medium (Gibco, Karlsruhe, Germany) containing 10% FBS and 1% penicillin/streptoMycin for 24 hours. The ODNs (3 μM each) were introduced into the cells by transfections using Tfx20 (Promega, Madison, Wis.) in 1 ml serum-free medium according to the instructions of the manufacturer. Two hours later, 1 ml DMEM (Gibco, Karlsruhe, Germany) containing 10% FBS was added. The cells were then incubated for 6 hours. Then the medium was exchanged against serum-free DMEM (Gibco, Karlsruhe, Germany), followed by an incubation for 16 hours in serum-free DMEM (Gibco, Karlsruhe, Germany) before being treated with 10% serum or […] S1P. The cells were then used for Western blots by adding boiling 1× Laemmli buffer or they were havested for AC activity assays as described above.", "data": [{"molecule": "CCCCCCCCCCCCC/C=C/[C@@H](O)[C@@H](N)COP(=O)(O)O", "note": "[S1P, Sphingosine-1-Phosphate]", "values": [{"measurement": "Gαs-stimulated AC activity", "setting": "0.5 μM S1P", "value": "reduced"}, {"measurement": "time to first decrease of Gαs-stimulated AC activity", "setting": "after incubation with S1P", "value": "≤ 3", "unit": "min"}]}]}
